Converted amounts (≈) assume the structure as drawn.

Consider 4 compounds from patent publication US20230303817A1, “BLENDED POLYVINYL ALCOHOL DRUG DELIVERY SYSTEMS” (The University of British Columbia, priority 2020, published 2023).

A short description of series [1]: Release of other therapeutic agents from blended PVA cast films or electrospun membranes. As to conditions: for drug release: 1% gentamicin. The series is classed as physicochemical. Here is the method:
Films or electrospun membrane were manufactured as described above containing either docetaxel, doxycycline, gentamicin or bovine serum albumin (BSA; as a protein model for any “biological” based drug such as an antibody). […] Gentamicin was analyzed using a fluorescence tag assay using Fluoraldehyde™ (Thermo Fisher) and BSA protein release was assayed using a BCA protein analysis kit.

The conditions of series [2]: cited from earlier work.
In a further series the test system is MRSA strain USA300. Put plainly: Antimicrobial efficacy of silver-loaded PVA films and membranes. The series is classed as cell-based, S. aureus. As to conditions: for bacterial death: 1% w/w silver, 20 mg in 10 mL, up to 48 hours; for Anti-bacterial (MRSA) activity: 1% w/w silver salt (FIG. 11).
Series [3] is described as follows: Film swelling and degradation studies in deionized water (cast films and electrospun membranes). The format is physicochemical. The note with it: cast films with 48% and 46% PVA 99% content (rest PVA 88%).
Procedure: PVA films or electrospun membranes were prepared as described above. These films were then stored for one week in the dark before use. Small sections of films (approximate diameters of 2 cm) were then placed on moist 0.2 µm filter discs (Millipore, Billerica, MA, USA) and weighed. The films and filters were covered with a thin layer of deionized water and left for appropriate times. After set time points the filter discs and adherent PVA-silver gel were moved to a Millipore vacuum apparatus and all excess water was removed from the filter over approximately 15 seconds. The combined PVA gel and filter were reweighed and recovered with a fresh layer of excess water. The weight gain (swelling) and weight loss (dissolution) were then calculated as a percentage of the original dry film weight.
A short description of series [4]: Silver release studies (inductively coupled plasma analysis of release media). The series is classed as physicochemical. The note with it: electrospun membranes 10:90 PVA99%:PVA88%, 1% w/w silver salt.
Procedure: Films or electrospun membranes containing silver were placed in deionized water and the media sampled at regular intervals for silver analysis by Inductively coupled plasma analysis. Silver calibration standards were run every 10 samples. The instrument held reproducible standard curves over 100 sequential silver analysis with detection limits approximating 10 ng/ml. Each release study was run in triplicate for at least two weeks and the results plotted as the calculated percent silver released as a function of time.
Where [5] appears, read: electrospun membranes 10:90 PVA99%:PVA88%.

Procedure for MRSA strain USA300: In order to illustrate the antimicrobial activity of PVA-silver formulations, all cast films and electrospun membranes were weighed at 20 mg +/- 0.5 mg. The methicillin resistant strain of S. aureus (MRSA strain USA300) was cultured overnight from freezer stocks (20 µL bacterial sample into 20 mL Luria Bertani (LB) broth), followed by a second sub-culture (200 µL in 20 mL LB broth) until an optical density of -0.3-0.5 at λ=600 nm was reached (measured using an Eppendorf BioPhotometer (Eppendorf, Mississauga, ON, Canada), at which point bacteria were used as outlined below.

Regarding `CC(=O)O[C@@]12CO[C@@H]1C[C@H](O)[C@@]1(C)C(=O)[C@H](O)C3=C(C)[C@@H](OC(=O)[C@H](O)[C@@H](NC(=O)OC(C)(C)C)c4ccccc4)C[C@@](O)([C@@H](OC(=O)c4ccccc4)[C@H]21)C3(C)C` [docetaxel], the “drug release, % of total drug” value in series [1] (electrospun membranes 35:65, 45:55 or 55:45 PVA 99%:88%, 1% docetaxel, over 7 days) is listed as 5-8%.
`C[C@H]1c2cccc(O)c2C(=O)C2=C(O)[C@]3(O)C(=O)C(C(N)=O)=C(O)[C@@H](N(C)C)[C@@H]3[C@@H](O)[C@@H]21` [doxycycline]: the water solubility in series [2] was 500 µg/mL (≈ 1130 µM).
Consider `O=S(=O)([O-])[O-].[Ag+].[Ag+]` [silver sulphate], for which the bacterial death in the series with MRSA strain USA300 (cast films 40:60 PVA99%:PVA88%) and in the series on MRSA strain USA300 (setting [5]) was 100% in each case. For the same compound, the “Anti-bacterial (MRSA) activity” value in the series on MRSA strain USA300 (setting [5]) and in the series on MRSA strain USA300 (films 40:60 PVA99%:PVA88%) was “killed all MRSA bacteria” throughout. For the same compound, in series [3], the “swelling at 6 hours” value was greater than 0%. For the same compound, the “silver release by day 11” value in series [4] was 75%.
For the compound gentamicin, the drug release is 50-70% in series [1] (cast films 35:65, 45:55 or 55:45 PVA 99%:88%, over 7 days) and 40% in series [1] (electrospun membranes 35:65, 45:55 or 55:45 PVA 99%:88%, over 6 days).
